Test system: 777334-354-R2-J4-PDC tumor spheroids with HUVEC/MSC, viability
Experiment: Anticancer human tumor 777334-354-R2-J4-PDC patient-derived pancreatic adenocarcinoma cell line growth inhibition [GQUAD]
Settings: for IC50: curve of first compound; for viability, T/C: stronger effect = lower value
Outline: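 Tumor cells were grown as complex spheroids with HUVEC endothelial cells and mesenchymal stem cells as stroma. G-quadruplex stabilizers were combined with targeted agents over half-log dilutions from near the clinical Cmax, or from 10 microM.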
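Note: spheroids exposed to compounds for 7 days before readout.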

CC1COCCN1c1cc(C2(O)CC3CCC(C2)O3)c2cnn(-c3ccn[nH]3)c2n1 (configuration not stated) + Cc1[nH]c2ccc(F)cc2c1-c1nc2c3cccnc3c3ncccc3c2[nH]1 showed an IC50 (second compound 0.0316 µM) of 0.302 µM, an IC50 (second compound 0.1 µM) of 0.364 µM and an IC50 (second compound 0.316 µM) of 0.384 µM. For the same compound, the IC50 (second compound 1 µM) was 0.186 µM, the IC50 (second compound 3.16 µM) was < 0.0316 µM and the IC50 (second compound 10 µM) was < 0.0316 µM. It also gave a viability, T/C (second compound 0.0316 µM, first compound 0.0316 µM) of 93.8%, a viability, T/C (second compound 0.0316 µM, first compound 0.1 µM) of 59.3% and a viability, T/C (second compound 0.0316 µM, first compound 0.316 µM) of 52.8%. It also gave a viability, T/C (second compound 0.0316 µM, first compound 1 µM) of 38.3%, a viability, T/C (second compound 0.0316 µM, first compound 3.16 µM) of 33.2% and a viability, T/C (second compound 0.0316 µM, first compound 10 µM) of 19%. The viability, T/C (second compound 0.1 µM, first compound 0.0316 µM) was 98.7%, the viability, T/C (second compound 0.1 µM, first compound 0.1 µM) was 66.1% and the viability, T/C (second compound 0.1 µM, first compound 0.316 µM) was 56%. It also gave a viability, T/C (second compound 0.1 µM, first compound 1 µM) of 36.5%, a viability, T/C (second compound 0.1 µM, first compound 3.16 µM) of 31.9% and a viability, T/C (second compound 0.1 µM, first compound 10 µM) of 23%. It also gave a viability, T/C (second compound 0.316 µM, first compound 0.0316 µM) of 84.6%, a viability, T/C (second compound 0.316 µM, first compound 0.1 µM) of 67.1% and a viability, T/C (second compound 0.316 µM, first compound 0.316 µM) of 50.6%. The viability, T/C (second compound 0.316 µM, first compound 1 µM) was 39.8%, the viability, T/C (second compound 0.316 µM, first compound 3.16 µM) was 31.4% and the viability, T/C (second compound 0.316 µM, first compound 10 µM) was 20.8%. For the same compound, the viability, T/C (second compound 1 µM, first compound 0.0316 µM) was 66.8%, the viability, T/C (second compound 1 µM, first compound 0.1 µM) was 56% and the viability, T/C (second compound 1 µM, first compound 0.316 µM) was 44.9%. The viability, T/C (second compound 1 µM, first compound 1 µM) was 31.6%, the viability, T/C (second compound 1 µM, first compound 3.16 µM) was 21.3% and the viability, T/C (second compound 1 µM, first compound 10 µM) was 16.9%. The viability, T/C (second compound 3.16 µM, first compound 0.0316 µM) was 25.2%, the viability, T/C (second compound 3.16 µM, first compound 0.1 µM) was 18.8% and the viability, T/C (second compound 3.16 µM, first compound 0.316 µM) was 11.6%. The viability, T/C (second compound 3.16 µM, first compound 1 µM) was 8.38%, the viability, T/C (second compound 3.16 µM, first compound 3.16 µM) was 6.83% and the viability, T/C (second compound 3.16 µM, first compound 10 µM) was 4.02%. It also gave a viability, T/C (second compound 10 µM, first compound 0.0316 µM) of 21.8%, a viability, T/C (second compound 10 µM, first compound 0.1 µM) of 16.9% and a viability, T/C (second compound 10 µM, first compound 0.316 µM) of 12.8%. For the same compound, the viability, T/C (second compound 10 µM, first compound 1 µM) was 7.12%, the viability, T/C (second compound 10 µM, first compound 3.16 µM) was 7.7% and the viability, T/C (second compound 10 µM, first compound 10 µM) was 4.01%.

Source: PubChem BioAssay AID2060499 (Molecular Pharmacology Branch, DTP, NCI, 2025)
